Test results as given in article PMC9221290, “Alkaloids of Dicranostigma franchetianum (Papaveraceae) and Berberine Derivatives as a New Class of Antimycobacterial Agents” (Biomolecules, 2022).
Read-outs that look alike come from different tables or passages of the source.

Legend:
[1] = tested on: Mtb H37Ra ITM-M006710 (ATCC 9431); experiment: Antimycobacterial microdilution broth assay (resazurin), Mtb H37Ra; assay type: cell-based, Mycobacterium tuberculosis; details: Mycobacterium tuberculosis
[2] = tested on: Mycolicibacterium aurum DSM 43999 (ATCC 23366); experiment: Antimycobacterial microdilution broth assay (resazurin), M. aurum; assay type: cell-based; details: Mycolicibacterium aurum, 72 h, read-out: MIC M. aurum, microdilution broth, resazurin, 72 h
[3] = tested on: Mycobacterium avium DSM 44156 (ATCC 25291); experiment: Antimycobacterial microdilution broth assay (resazurin), M. avium; assay type: cell-based; details: Mycobacterium avium, 96 h, read-out: MIC M. avium, microdilution broth, resazurin, 96 h
[4] = tested on: Mycobacterium kansasii DSM 44162 (ATCC 12478); experiment: Antimycobacterial microdilution broth assay (resazurin), M. kansasii; assay type: cell-based; details: Mycobacterium kansasii, 96 h, read-out: MIC M. kansasii, microdilution broth, resazurin, 96 h
[5] = tested on: Mycolicibacterium smegmatis DSM 43465 (ATCC 607); experiment: Antimycobacterial microdilution broth assay (resazurin), M. smegmatis; assay type: cell-based; details: Mycolicibacterium smegmatis, 48 h, read-out: MIC M. smegmatis, microdilution broth, resazurin, 48 h
HepG2 cells [6] = tested on: HepG2 cells
HepG2 cells [7] = experiment: cells; details: Homo sapiens, HepG2, 24 h
in vitro = details: human, % of cell viability compared to control; for viability at 1 µM: HepG2, 1 µM; for viability at 5 µM: HepG2, 5 µM; for viability at 10 µM: HepG2, 10 µM; for viability at 20 µM: HepG2, 20 µM; for viability at 40 µM: HepG2, 40 µM; for viability at 60 µM: HepG2, 60 µM; for viability at 80 µM: HepG2, 80 µM; for viability at 100 µM: HepG2, 100 µM; for viability at 25 µM: HepG2, 25 µM; for viability at 50 µM: HepG2, 50 µM; for viability at 75 µM: HepG2, 75 µM; for viability at 0.1 µM: HepG2, 0.1 µM; for viability at 30 µM: HepG2, 30 µM
[8] = 120 h, microdilution broth, resazurin, 120 h, read-out: MIC Mtb H37Ra
[9] = calculated from MIC (µg/mL) and MW, read-out: MIC Mtb H37Ra
[10] = read-out: HepG2 IC50, 1. measurement, MTT, 24 h, single measurement 1
[11] = read-out: HepG2 IC50, 2. measurement, MTT, 24 h, single measurement 2
[12] = read-out: HepG2 IC50, 3. measurement, MTT, 24 h, single measurement 3
[13] = read-out: HepG2 IC50, MTT, 24 h incubation

| Structure (SMILES) | MIC [2] [µg/mL] | MIC [3] [µg/mL] | MIC [4] [µg/mL] | MIC [5] [µg/mL] | SI (selectivity index) (HepG2 cells [6]) | IC50 (HepG2 cells [7]; [10]) [µM] | IC50 (HepG2 cells [7]; [11]) [µM] | IC50 (HepG2 cells [7]; [12]) [µM] | IC50 (HepG2 cells [7]; [13]) [µM] | viability at 1 µM (in vitro; 1. measurement) [%] | viability at 5 µM (in vitro; 1. measurement) [%] | viability at 10 µM (in vitro; 1. measurement) [%] | viability at 1 µM (in vitro; 2. measurement) [%] | viability at 5 µM (in vitro; 2. measurement) [%] | viability at 10 µM (in vitro; 2. measurement) [%] | viability at 50 µM (in vitro; 2. measurement) [%] | viability at 1 µM (in vitro; 3. measurement) [%] | viability at 5 µM (in vitro; 3. measurement) [%] | viability at 10 µM (in vitro; 3. measurement) [%] | viability at 50 µM (in vitro; 3. measurement) [%] | other results |
| --- | --- | --- | --- | --- | --- | --- | --- | --- | --- | --- | --- | --- | --- | --- | --- | --- | --- | --- | --- | --- | --- |
| COc1ccc2cc3[n+](cc2c1OCc1cccc(C)c1)CCc1cc2c(cc1-3)OCO2 [16c, 9-O-(3-methylbenzyl)berberine chloride] | 3.12 | 6.25 | 6.25 | 1.56 | 3.49 | 55.6 | 43.4 | 42.3 | 47.1 ± 7.38 | 87.2 | 88.3 | 74 | 88.3 | 78.7 | 68.3 | 47.9 | 99.8 | 78.9 | 64.9 | 47.3 | MIC [1, 8]: 6.25 µg/mL; MIC [1, 9]: 13.5 µM; viability at 20 µM (in vitro; 1. measurement): 58.4%; viability at 40 µM (in vitro; 1. measurement): 54.5%; viability at 60 µM (in vitro; 1. measurement): 53.3%; viability at 80 µM (in vitro; 1. measurement): 49.5%; viability at 100 µM (in vitro; 1. measurement): 35.1%; viability at 25 µM (in vitro; 2. measurement): 52.9%; viability at 75 µM (in vitro; 2. measurement): 45.7%; viability at 100 µM (in vitro; 2. measurement): 39%; viability at 0.1 µM (in vitro; 3. measurement): 102%; viability at 25 µM (in vitro; 3. measurement): 48.6%; viability at 75 µM (in vitro; 3. measurement): 46.1%; viability at 100 µM (in vitro; 3. measurement): 42.5% |
| COc1ccc2cc3[n+](cc2c1OCc1ccccc1)CCc1cc2c(cc1-3)OCO2 [16a, 9-O-benzylberberine chloride] | 3.12 | 3.12 | 6.25 | 0.78 | 1.76 | 29.1 | 20.8 | 23.5 | 24.5 ± 4.25 | 93.4 | 81.9 | 68.9 | 87.9 | 73 | 59.2 | 42.1 | 96.4 | 76.4 | 60.7 | 44.9 | MIC [1, 8]: 6.25 µg/mL; MIC [1, 9]: 13.9 µM; viability at 20 µM (in vitro; 1. measurement): 59.4%; viability at 40 µM (in vitro; 1. measurement): 56.2%; viability at 60 µM (in vitro; 1. measurement): 41.5%; viability at 80 µM (in vitro; 1. measurement): 20.2%; viability at 100 µM (in vitro; 1. measurement): 8.76%; viability at 25 µM (in vitro; 2. measurement): 48.9%; viability at 75 µM (in vitro; 2. measurement): 31.1%; viability at 100 µM (in vitro; 2. measurement): 16.6%; viability at 25 µM (in vitro; 3. measurement): 50.3%; viability at 75 µM (in vitro; 3. measurement): 29.6%; viability at 100 µM (in vitro; 3. measurement): 15.3% |
| COc1ccc2cc3[n+](cc2c1OCc1ccccc1C)CCc1cc2c(cc1-3)OCO2 [16b, 9-O-(2-methylbenzyl)berberine chloride] | 7.81 | 3.91 | 3.91 | 1.95 | 2.32 | 36 | 38.6 | 43.2 | 39.3 ± 3.62 | 96 | 83.6 | 73 | 97.8 | 87.1 | 76.6 | 42.5 | 99.4 | 88.8 | 76.5 | 44.9 | MIC [1, 8]: 7.81 µg/mL; MIC [1, 9]: 16.9 µM; viability at 25 µM (in vitro; 1. measurement): 48.6%; viability at 50 µM (in vitro; 1. measurement): 41.5%; viability at 75 µM (in vitro; 1. measurement): 39.3%; viability at 100 µM (in vitro; 1. measurement): 37.5%; viability at 25 µM (in vitro; 2. measurement): 51.6%; viability at 75 µM (in vitro; 2. measurement): 41.1%; viability at 100 µM (in vitro; 2. measurement): 33.8%; viability at 0.1 µM (in vitro; 3. measurement): 99.5%; viability at 25 µM (in vitro; 3. measurement): 51.6%; viability at 75 µM (in vitro; 3. measurement): 42.6%; viability at 100 µM (in vitro; 3. measurement): 38.5% |
| COc1ccc2cc3[n+](cc2c1OCc1ccc(Cl)cc1)CCc1cc2c(cc1-3)OCO2 [16i, 9-O-(4-chlorbenzyl)berberine chloride] | 3.12 | 1.56 | 6.25 | 1.56 | 2.73 | 15.9 | 14.7 | 18 | 16.2 ± 1.67 | 101 | 82.3 | 55.3 | 93.6 | 78 | 56 | 3.4 | 100 | 82.3 | 61.1 | 2.8 | MIC [1, 8]: 3.12 µg/mL; MIC [1, 9]: 5.93 µM; viability at 0.1 µM (in vitro; 1. measurement): 96.1%; viability at 20 µM (in vitro; 1. measurement): 48.5%; viability at 30 µM (in vitro; 1. measurement): 42.3%; viability at 40 µM (in vitro; 1. measurement): 24.7%; viability at 50 µM (in vitro; 1. measurement): 4.45%; viability at 0.1 µM (in vitro; 2. measurement): 91.6%; viability at 20 µM (in vitro; 2. measurement): 48.4%; viability at 30 µM (in vitro; 2. measurement): 40%; viability at 40 µM (in vitro; 2. measurement): 21.4%; viability at 0.1 µM (in vitro; 3. measurement): 98.2%; viability at 20 µM (in vitro; 3. measurement): 54.6%; viability at 30 µM (in vitro; 3. measurement): 45%; viability at 40 µM (in vitro; 3. measurement): 25.8% |
| COc1ccc2cc3[n+](cc2c1OCc1ccc(C)cc1)CCc1cc2c(cc1-3)OCO2 [16d, 9-O-(4-methylbenzyl)berberine chloride] | 6.25 | 1.98 | 3.91 | 1.56 | 2.54 | 19.3 | 16 | 12.3 | 15.9 ± 3.48 | 96.1 | 70 | 55.6 | 92.6 | 64.6 | 48 | 41.4 | 76.5 | 68.2 | 52 | 45.2 | MIC ([1]; 120 h, read-out: MIC Mtb H37Ra, microdilution broth, resazurin, 120 h): 3.91 µg/mL; MIC ([1]; read-out: MIC Mtb H37Ra (µM), calculated from MIC (µg/mL) and MW): 8.46 µM; viability at 25 µM (in vitro; 1. measurement): 48%; viability at 50 µM (in vitro; 1. measurement): 43.7%; viability at 75 µM (in vitro; 1. measurement): 32.6%; viability at 100 µM (in vitro; 1. measurement): 7.68%; viability at 0.1 µM (in vitro; 2. measurement): 93.3%; viability at 25 µM (in vitro; 2. measurement): 45%; viability at 75 µM (in vitro; 2. measurement): 34%; viability at 100 µM (in vitro; 2. measurement): 15.7%; viability at 0.1 µM (in vitro; 3. measurement): 79.8%; viability at 25 µM (in vitro; 3. measurement): 47.6%; viability at 75 µM (in vitro; 3. measurement): 18.3%; viability at 100 µM (in vitro; 3. measurement): 11.4% |
| COc1ccc2cc3[n+](cc2c1OCc1cccc(Cl)c1)CCc1cc2c(cc1-3)OCO2 [16h, 9-O-(3-chlorbenzyl)berberine chloride] | 1.56 | 1.56 | 3.12 | 0.78 | 1.59 | 8.53 | 11.9 | 7.91 | 9.44 ± 2.13 | 65.4 | 66.5 | 51.7 | 94.6 | 67.4 | 54.2 | 12.8 | 87.2 | 54.4 | 47.8 | 15.6 | MIC [1, 8]: 3.12 µg/mL; MIC [1, 9]: 5.93 µM; viability at 25 µM (in vitro; 1. measurement): 44.2%; viability at 50 µM (in vitro; 1. measurement): 36.5%; viability at 75 µM (in vitro; 1. measurement): 23.8%; viability at 100 µM (in vitro; 1. measurement): 15.7%; viability at 25 µM (in vitro; 2. measurement): 44.6%; viability at 75 µM (in vitro; 2. measurement): 1.14%; viability at 100 µM (in vitro; 2. measurement): 0.68%; viability at 25 µM (in vitro; 3. measurement): 36%; viability at 75 µM (in vitro; 3. measurement): 2.92%; viability at 100 µM (in vitro; 3. measurement): 0.98% |
